In patent EP0048954A2, “Beta-lactam compounds, process for the preparation thereof and intermediate products for the preparation thereof” (SAGAMI CHEMICAL RESEARCH CENTER, priority 1980, dated 1982) one finds MIC data, which are given here for three molecules.

Molecules are shown by their SMILES. Converted amounts (≈) assume the structure as drawn. Structures can show the parent of a compound that is named as a salt. Where two headings read alike, the source gives them in different places.

Common to all, as to test: Antibacterial activity, minimum inhibition concentration (method of The Chemotherapy Association, Japan)
Holding throughout (format): cell-based

For one experiment, the system named is Proteus vulgaris OX-19. To be noted: Proteus vulgaris. The source says:
(§1) The abbreviations A to P will be used in the following Tables 2 to 8.
(§2) Test results are shown in terms of the minimum inhibition concentration (µg/mℓ.) in the following Tables 2 to 8.

In another experiment the test system is Proteus rettgeri NIH-96. To be noted: Providencia rettgeri.
Source text: as §1, §2

The subject of experiment [1] is Staphylococcus aureus 6538-P. The procedure, abridged:
(§3)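 MIC (µg/mℓ), Japanese Chemotherapy Assoc. standard method.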

In experiment [2] the test system is Pseudomonas aeruginosa NCTC-10490. To be noted: Pseudomonas aeruginosa. The procedure, abridged:
as §3

Another experiment deals with Escherichia coli NIHJ. Particulars: Escherichia coli, strain K: Escherichia coli NIHJ; read-out: minimum inhibition concentration. The method in brief:
as §3

Experiment [3] deals with Enterobactor cloacae NCTC-9394. Particulars: strain N: Enterobactor cloacae NCTC-9394; read-out: minimum inhibition concentration. The method in brief: as §3
Experiment [4] relates to Proteus inconstans NIH-118. Particulars: Providencia alcalifaciens. The method in brief: as §3
[5] abbreviates: OX19, strain H: Proteus vulgaris OX-19, read-out: minimum inhibition concentration.
Setting [6] is: NIH96, strain I: Proteus rettgeri NIH-96, read-out: minimum inhibition concentration.
The mark [7] stands for this setting: strain A: Staphylococcus aureus 6538-P, read-out: minimum inhibition concentration.
Setting [8] is: NCTC10490, strain M: Pseudomonas aeruginosa NCTC-10490, read-out: minimum inhibition concentration.
Where [9] appears, read: NIH118, strain P: Proteus inconstans NIH-118, read-out: minimum inhibition concentration.

For the molecule `CC(=O)OCC1=C(C(=O)O)N2C(=O)C(NC(=O)C(=C(Cl)Cl)c3ccsc3)[C@H]2SC1` (stereo partly drawn) [Compound 40, 7-[2-dichloromethylene-2-(3-thienyl)acetamido]-3-acetoxymethyl-3-cephem-4-carboxylic acid], the MIC in the experiment on Proteus vulgaris OX-19 (setting [5]) was 25 µg/mL (≈ 52.4 µM); in the experiment with Proteus rettgeri NIH-96 (setting [6]), 0.39 µg/mL (≈ 0.817 µM); in experiment [1] (setting [7]) it was 0.39 µg/mL (≈ 0.817 µM); in experiment [2] (setting [8]), 25 µg/mL (≈ 52.4 µM); in the experiment with Escherichia coli NIHJ, 1.56 µg/mL (≈ 3.27 µM); in experiment [3], 100 µg/mL (≈ 209 µM). The MIC in experiment [4] (setting [9]) amounted to 25 µg/mL (≈ 52.4 µM).

Take `Cn1nnnc1SCC1=C(C(=O)O)N2C(=O)C(NC(=O)C(=C(Cl)Cl)c3cccs3)C2SC1` (stereo not drawn) [Compound 39, 7-[2-dichloromethylene-2-(2-thienyl)acetamido]-3-(l-methyl-lH-tetrazol-5-yl)thiomethyl-3-cephem-4-carboxylic acid]: the MIC in the experiment with Proteus vulgaris OX-19 (setting [5]) is 50 µg/mL (≈ 93.7 µM); in the experiment with Proteus rettgeri NIH-96 (setting [6]) it was 0.05 µg/mL (≈ 0.0937 µM); in experiment [1] (setting [7]) it was 0.2 µg/mL (≈ 0.375 µM); in experiment [2] (setting [8]), 6.25 µg/mL (≈ 11.7 µM); with Escherichia coli NIHJ it was 0.39 µg/mL (≈ 0.731 µM); in experiment [3], 12.5 µg/mL (≈ 23.4 µM). Moreover, the MIC in experiment [4] (setting [9]) was 3.12 µg/mL (≈ 5.86 µM).

Consider `CC(=O)OCC1=C(C(=O)O)N2C(=O)C(NC(=O)Cc3cccs3)C2SC1` (stereo not drawn) [Cephalo-thin Na salt, reference compound], for which the MIC was more than 100 µg/mL in the experiment with Proteus vulgaris OX-19 (OX19, read-out: minimum inhibition concentration, strain H: Proteus vulgaris OX-19); more than 100 µg/mL in the experiment with Proteus rettgeri NIH-96 (NIH96, read-out: minimum inhibition concentration, strain I: Proteus rettgeri NIH-96); 0.1 µg/mL in experiment [1] (Staphylococcus aureus, 6538P, read-out: minimum inhibition concentration, strain A: Staphylococcus aureus 6538-P); more than 100 µg/mL in experiment [2] (NCTC10490, read-out: minimum inhibition concentration); 25 µg/mL with Escherichia coli NIHJ; more than 100 µg/mL in experiment [3]. The MIC in experiment [4] (NIH118, read-out: minimum inhibition concentration) was more than 100 µg/mL.
